The compounds below were run against T1, GAL4-RORγ (GAL4 DBD fused to the ROR gamma ligand-binding domain) (Homo sapiens, UniProt P51449) (assay: GAL4-RORγ transactivation (luciferase reporter, HG5LN HeLa line)). Settings: HG5LN HeLa cells, 18 hours incubation, luciferase luminescence, read-out: IC50 hRORg.
T1 construct: expressed in transfected cells; host or cells: HG5LN (HeLa line with GAL4-responsive luciferase reporter)
T1 sequence (P51449 269-508 limits assumed): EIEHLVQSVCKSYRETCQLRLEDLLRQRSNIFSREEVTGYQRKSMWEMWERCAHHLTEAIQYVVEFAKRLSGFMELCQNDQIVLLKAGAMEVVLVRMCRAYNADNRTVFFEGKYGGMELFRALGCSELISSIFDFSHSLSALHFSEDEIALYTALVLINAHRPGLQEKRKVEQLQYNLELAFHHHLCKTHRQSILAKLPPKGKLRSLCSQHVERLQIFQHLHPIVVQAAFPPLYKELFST
Format: cell-based
Excerpt: In the tables described above, the median inhibitory concentrations IC50 for the compounds belonging to formula (I) according to the invention have been given according to the following models:
GAL4-RORγ Transactivation
The RORγ transactivation model was developed from the line HG5LN, which is a HeLa line that stably expresses a luciferase reporter gene controlled by a pentamer of the GAL4 recognition domain of yeast and of a β-globin promoter. The HG5LN line was stably transfected by the DNA-binding domain (DBD) of GAL4 fused to the ROR gamma ligand-binding domain (LBD). Molecules that inhibit the ROR gamma constitutive activity reduce the luciferase expression, thus leading to a reduction in the emitted luminescence.
The cells are seeded in 384-well plates (5000 cells in 45 μL/well of culture medium containing 10% fetal calf serum) and incubated for 4 hours at 37° C., 5% CO2. 5 μL of the test molecules (compounds described in the tables described above) are then added to each well and the plates are incubated for 18 hours at a temperature of 37° C. under 5% of CO2. 20 μL of luciferase substrate (Promega) are added to each well and the luminescence emitted is read by a microplate reader.
The luminescence units (“RLU”) are normalized by positive controls (“POS” containing a saturated concentration of N-(2,2,2-trifluoroethyl)-N-[4-[2,2,2-trifluoro-1-hydroxy-1-(trifluoromethyl)ethyl]phenyl])benzenesulfonamide and negative controls (“NEG” containing DMSO): % inhibition=((RLU−NEG)*100)/(POS−NEG). The IC50 values are calculated from a 4-parameter logistic model using the XLFit software (IDBS).

SMILES | IC50
CCc1ccc(N(C2CCCC2)S(=O)(=O)c2ccc3c(cnn3CC3CCOCC3)c2)cc1 [Compound 32, 1-(tetrahydropyran-4-ylmethyl)-1H-indazole-5-sulfonic acid cyclopentyl(4-ethylphenyl)amide] | < 100 nM
CCc1ccc(N(CC2CCOC2)S(=O)(=O)c2ccc3c(cnn3CC3CCOCC3)c2)cc1 (stereo not shown) [Compound 33, 1-(tetrahydropyran-4-ylmethyl)-1H-indazole-5-sulfonic acid (4-ethylphenyl)(tetrahydrofuran-3-ylmethyl)amide] | > 1000 nM
CCc1ccc(N(CC(C)C)S(=O)(=O)c2ccc3[nH]nc(N)c3c2)cc1 [Compound 34, 3-amino-1H-indazole-5-sulfonic acid (4-ethylphenyl)isobutylamide] | > 1000 nM
CCc1ccc(N(CCC(C)C)S(=O)(=O)c2ccc3c(cnn3CC3CCOCC3)c2)cc1 [Compound 35, N-(4-ethylphenyl)-N-isopentyl-1-((tetrahydro-2H-pyran-4-yl)methyl)-1H-indazole-5-sulfonamide] | > 1000 nM
CCc1ccc(N(CC(C)C)S(=O)(=O)c2ccc3c(cnn3C3CCOCC3)c2)cc1 [Compound 38, 1-(tetrahydropyran-4-yl)-1H-indazole-5-sulfonic acid (4-ethylphenyl)isobutylamide] | > 1000 nM
CCc1ccc(N(CC(C)C)S(=O)(=O)c2ccc3c(cnn3C3CCN(C(C)=O)C3)c2)cc1 (stereo not shown) [Compound 40, 1-(1-acetylpyrrolidin-3-yl)-1H-indazole-5-sulfonic acid (4-ethylphenyl)isobutylamide] | > 1000 nM
CCc1ccc(N(C2CCC2)S(=O)(=O)c2ccc3c(cnn3CC3CCOCC3)c2)cc1 [Compound 41, 1-(tetrahydropyran-4-ylmethyl)-1H-indazole-5-sulfonic acid cyclobutyl(4-ethylphenyl)amide] | > 1000 nM
Cc1ccc(F)cc1N(CC(C)C)S(=O)(=O)c1ccc2c(cnn2CC2CCOCC2)c1 [Compound 42, 1-(tetrahydropyran-4-ylmethyl)-1H-indazole-5-sulfonic acid (5-fluoro-2-methylphenyl)isobutylamide] | 100 to 1000 nM
Cc1c(F)cccc1N(CC(C)C)S(=O)(=O)c1ccc2c(cnn2CC2CCOCC2)c1 [Compound 43, 1-(tetrahydropyran-4-ylmethyl)-2H-indazole-5-sulfonic acid (3-fluoro-2-methylphenyl)isobutylamide] | 100 to 1000 nM
CC(C)CN(c1cccc(Cl)c1)S(=O)(=O)c1ccc2c(cnn2CC2CCOCC2)c1 [Compound 44, 1-(tetrahydropyran-4-ylmethyl)-1H-indazole-5-sulfonic acid (5-chlorophenyl)isobutylamide] | > 1000 nM
CC(C)CN(c1ccccc1Cl)S(=O)(=O)c1ccc2c(cnn2CC2CCOCC2)c1 [Compound 45, 1-(tetrahydropyran-4-ylmethyl)-1H-indazole-5-sulfonic acid (2-chlorophenyl)isobutylamide] | > 1000 nM
CC(C)CN(c1ccc(F)cc1)S(=O)(=O)c1ccc2c(cnn2CC2CCOCC2)c1 [Compound 46, 1-(tetrahydropyran-4-ylmethyl)-1H-indazole-5-sulfonic acid (4-fluorophenyl)isobutylamide] | > 1000 nM
Cc1ccc(N(CC(C)C)S(=O)(=O)c2ccc3c(cnn3CC3CCOCC3)c2)cc1 [Compound 47, 1-(tetrahydropyran-4-ylmethyl)-1H-indazole-5-sulfonic acid isobutyl-p-tolylamide] | > 1000 nM
Cc1ccccc1N(CC(C)C)S(=O)(=O)c1ccc2c(cnn2CC2CCOCC2)c1 [Compound 48, 1-(tetrahydropyran-4-ylmethyl)-1H-indazole-5-sulfonic acid isobutyl-o-tolylamide] | > 1000 nM
CC(C)CN(c1ccc(OC(F)(F)F)cc1)S(=O)(=O)c1ccc2c(cnn2CC2CCOCC2)c1 [Compound 49, 1-(tetrahydropyran-4-ylmethyl)-1H-indazole-5-sulfonic acid (4-trifluoromethoxyphenyl)isobutylamide] | > 1000 nM
CC(C)CN(c1ccc(C(C)C)cn1)S(=O)(=O)c1ccc2c(cnn2CC2CCOCC2)c1 [Compound 50, 1-(tetrahydropyran-4-ylmethyl)-1H-indazole-5-sulfonic acid isobutyl(5-isopropylpyridin-2-yl)amide] | > 1000 nM

SMILES | IC50
CC(C)CN(Cc1cccc(Cl)c1)S(=O)(=O)c1ccc2c(cnn2CC2CCOCC2)c1 [Compound 51, 1-(tetrahydropyran-4-ylmethyl)-1H-indazole-5-sulfonic acid (3-chlorobenzyl)isobutylamide] | > 1000 nM
CC(C)CN(Cc1ccccc1C(F)(F)F)S(=O)(=O)c1ccc2c(cnn2CC2CCOCC2)c1 [Compound 52, 1-(tetrahydropyran-4-ylmethyl)-1H-indazole-5-sulfonic acid isobutyl(2-trifluoromethylbenzyl)amide] | 100 to 1000 nM
Cc1cccc(F)c1N(CC(C)C)S(=O)(=O)c1ccc2c(cnn2CC2CCOCC2)c1 [Compound 53, 1-(tetrahydropyran-4-ylmethyl)-1H-indazole-5-sulfonic acid (2-fluoro-6-methylphenyl)isobutylamide] | > 1000 nM
Cc1cc(F)ccc1N(CC(C)C)S(=O)(=O)c1ccc2c(cnn2CC2CCOCC2)c1 [Compound 54, 1-(tetrahydropyran-4-ylmethyl)-1H-indazole-5-sulfonic acid (4-fluoro-2-methylphenyl)isobutylamide] | 100 to 1000 nM
COc1ccc(N(CC(C)C)S(=O)(=O)c2ccc3c(cnn3CC3CCOCC3)c2)c(C)c1 [Compound 55, 1-(tetrahydropyran-4-ylmethyl)-1H-indazole-5-sulfonic acid isobutyl(4-methoxy-2-methylphenyl)amide] | 100 to 1000 nM
Cc1cc(C#N)ccc1N(CC(C)C)S(=O)(=O)c1ccc2c(cnn2CC2CCOCC2)c1 [Compound 57, 1-(tetrahydropyran-4-ylmethyl)-1H-indazole-5-sulfonic acid (4-cyano-2-methylphenyl)isobutylamide] | 100 to 1000 nM
CC(C)CN(c1ccccc1C(F)(F)F)S(=O)(=O)c1ccc2c(cnn2CC2CCOCC2)c1 [Compound 58, 1-(tetrahydropyran-4-ylmethyl)-1H-indazole-5-sulfonic acid isobutyl(2-trifluoromethylphenyl)amide] | 100 to 1000 nM
CC(C)CN(c1ccc(C(F)(F)F)cc1)S(=O)(=O)c1ccc2c(cnn2CC2CCOCC2)c1 [Compound 59, 1-(tetrahydropyran-4-ylmethyl)-1H-indazole-5-sulfonic acid isobutyl(4-trifluoromethylphenyl)amide] | > 1000 nM
CCc1ccc(N(CC(CO)CCl)S(=O)(=O)c2ccc3c(cnn3CC3CCOCC3)c2)cc1 (stereo not shown) [Compound 60, 1-(tetrahydropyran-4-ylmethyl)-1H-indazole-5-sulfonic acid (3-chloro-2-hydroxymethylpropyl)(4-ethylphenyl)amide] | > 1000 nM
CCc1ccc(N(CC(C)C)S(=O)(=O)c2ccc3[nH]nc(OCC4CCOCC4)c3c2)cc1 [Compound 61, 3-(tetrahydropyran-4-ylmethoxy)-1H-indazole-5-sulfonic acid (4-ethylphenyl)isobutylamide] | > 1000 nM
CCc1ccc(N(CC(C)C)S(=O)(=O)c2ccc3c(C=C4CCOCC4)n[nH]c3c2)cc1 [Compound 62, 3-(tetrahydropyran-4-ylidenemethyl)-1H-indazole-6-sulfonic acid (4-ethylphenyl)isobutylamide] | < 100 nM
CCc1ccc(N(CC(C)C)S(=O)(=O)c2ccc3c(CN4C[C@@H](C)O[C@@H](C)C4)n[nH]c3c2)cc1 [Compound 65, 3-((cis)-2,6-dimethylmorpholin-4-ylmethyl)-1H-indazole-6-sulfonic acid (4-ethylphenyl)isobutylamide] | > 1000 nM
CCc1ccc(N(CC(C)C)S(=O)(=O)c2ccc3c(CN4CCOC[C@@H]4C)n[nH]c3c2)cc1 [Compound 66, 3-((S)-3-methylmorpholin-4-ylmethyl)-1H-indazole-6-sulfonic acid (4-ethylphenyl)isobutylamide] | 100 to 1000 nM
Cc1ccc(N(CC(C)C)S(=O)(=O)c2ccc3c(cnn3CC3CCOCC3)c2)c(C#N)c1 [Compound 70, 1-(tetrahydropyran-4-ylmethyl)-1H-indazole-5-sulfonic acid (2-cyano-4-methylphenyl)isobutylamide] | 100 to 1000 nM
CCc1ccc(N(CC(C)C)S(=O)(=O)c2cc(C(=O)OC)c3c(cnn3CC3CCOCC3)c2)cc1 [Compound 74, methyl 5-[(4-ethylphenyl)isobutylsulfamoyl]-1-(tetrahydropyran-4-ylmethyl)-1H-indazole-7-carboxylate] | > 1000 nM

— patent US10752617B2 (GALDERMA RESEARCH & DEVELOPMENT, priority 2014, dated 2020)
